Assay results from patent US9670191B2, “Pyridyl-and pyrimidinyl-substituted pyrrole-, thiophene- and furane-derivatives as kinase inhibitors” (priority 2006, dated 2017).
Counter-ions that a name gives are not always drawn.

biological target: Cdc7/Dbf4 (Homo sapiens (Human), UniProt O00311); assay: Inhibition assay of Cdc7/Dbf4 activity (Dowex resin capture, 33P-ATP, MCM2 substrate); type: biochemical; settings: not given
Method: Inhibition Assay of Cdc7 Activity
The inhibiting activity of putative Cdc7 inhibitors and the potency of selected compounds is determined through a method of assay based on the use of Dowex resin capture technology.
The assay consists of the transfer of radioactivity labeled phosphate moiety by the kinase to an acceptor substrate. The resulting 33P-labeled product is separated from unreacted tracer, transferred into a scintillation cocktail and light emitted is measured in a scintillation counter.
The inhibition assay of Cdc7/Dbf4 activity is performed according to the following protocol.
The MCM2 substrate is trans-phosphorylated by the Cdc7/Dbf4 complex in the presence of ATP traced with γ^33-ATP. The reaction is stopped by addition of Dowex resin in the presence of formic acid. Dowex resin particles capture unreacted γ^33-ATP and drag it to the bottom of the well while ^33P phosphorylated MCM2 substrate remains in solution. The supernatant is collected, transferred into Optiplate plates and the extent of substrate phosphorylation is evaluated by β counting.
The inhibition assay of Cdc7/Dbf4 activity was performed in 96 wells plate according to the following protocol.
The solvent for test compounds contained 3% DMSO (final concentration 1%) • 10 μl substrate MCM2 (6 μM final concentration), a mixture of cold ATP (2 μM final concentration) and radioactive ATP (1/5000 molar ratio with cold ATP). • 10 μl enzyme (Cdc7/Dbf4, 2 nM final concentration) that started the reaction. The buffer of the reaction consisted in 50 mM HEPES pH 7.9 containing 15 mM MgCl2, 2 mM DTT, 3 uM NaVO3, 2 mM glycerophosphate and 0.2 mg/ml BSA. • After incubation for 60 minutes at room temperature, the reaction was stopped by adding to each well 150 μl of Dowex resin in the presence of 150 mM formic acid. After another 60 min incubation, 50 μL of suspension were withdrawn and transferred into 96-well OPTIPLATEs containing 150 μl of MicroScint 40 (Packard); after 5-10 minutes shaking the plates were read for 1 min in a Packard TOP-Count radioactivity reader.
Experimental data were analyzed by the computer program Assay Explorer using the four parameter logistic equation: y=bottom+(top−bottom)/(1+10^((log IC50−x)*slope)) where x is the logarithm of the inhibitor concentration, y is the response; y starts at bottom and goes to top with a sigmoid shape.

Chain of Cdc7/Dbf4 (O00311 whole entry, looked up, species assumed): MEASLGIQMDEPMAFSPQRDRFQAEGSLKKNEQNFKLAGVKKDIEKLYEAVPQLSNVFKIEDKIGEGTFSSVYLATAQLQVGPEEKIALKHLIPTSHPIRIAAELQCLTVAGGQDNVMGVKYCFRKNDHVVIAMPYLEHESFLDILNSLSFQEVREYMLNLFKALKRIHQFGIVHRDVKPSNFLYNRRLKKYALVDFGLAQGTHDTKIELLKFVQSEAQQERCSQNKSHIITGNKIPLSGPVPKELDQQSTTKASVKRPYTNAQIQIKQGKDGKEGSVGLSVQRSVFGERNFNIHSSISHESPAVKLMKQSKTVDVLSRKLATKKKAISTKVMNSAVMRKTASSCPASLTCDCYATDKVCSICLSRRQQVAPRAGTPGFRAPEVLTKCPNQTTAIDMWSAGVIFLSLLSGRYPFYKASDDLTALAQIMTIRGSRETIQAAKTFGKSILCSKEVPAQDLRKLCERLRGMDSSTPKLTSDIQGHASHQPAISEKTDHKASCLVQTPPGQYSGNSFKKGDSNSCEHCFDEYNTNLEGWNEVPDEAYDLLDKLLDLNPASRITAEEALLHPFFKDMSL
Chain of Cdc7/Dbf4 (Q9UBU7 whole entry partner, looked up, species assumed): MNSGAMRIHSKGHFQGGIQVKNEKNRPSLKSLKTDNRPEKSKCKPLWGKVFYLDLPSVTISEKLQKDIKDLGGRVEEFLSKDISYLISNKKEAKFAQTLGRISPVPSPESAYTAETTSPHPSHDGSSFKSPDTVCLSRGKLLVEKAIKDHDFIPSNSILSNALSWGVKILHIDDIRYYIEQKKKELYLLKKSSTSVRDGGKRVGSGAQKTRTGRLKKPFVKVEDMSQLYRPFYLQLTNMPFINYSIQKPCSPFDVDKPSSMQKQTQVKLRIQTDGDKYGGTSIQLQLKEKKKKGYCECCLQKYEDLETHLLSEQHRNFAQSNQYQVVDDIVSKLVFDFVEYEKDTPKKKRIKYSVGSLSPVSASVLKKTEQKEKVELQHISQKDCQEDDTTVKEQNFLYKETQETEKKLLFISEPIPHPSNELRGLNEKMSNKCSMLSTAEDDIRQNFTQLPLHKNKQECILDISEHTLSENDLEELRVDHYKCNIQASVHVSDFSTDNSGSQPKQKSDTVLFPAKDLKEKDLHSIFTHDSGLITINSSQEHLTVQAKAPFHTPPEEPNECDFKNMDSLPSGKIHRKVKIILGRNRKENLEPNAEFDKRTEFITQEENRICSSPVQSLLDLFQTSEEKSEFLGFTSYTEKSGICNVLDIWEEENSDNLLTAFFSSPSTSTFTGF

Structure (SMILES) | IC50 [nM]
NC(=O)c1cc(-c2ccncc2)[nH]c1-c1ccccc1 [Compound A1, 2-Phenyl-5-pyridin-4-yl-1H-pyrrole-3-carboxylic acid amide] | 1 to 100
NC(=O)c1cc(-c2ccncc2)[nH]c1-c1ccccc1F [Compound A2, 2-(2-Fluoro-phenyl)-5-pyridin-4-yl-1H-pyrrole-3-carboxylic acid amide hydrochloride] | 1 to 100
NC(=O)c1cc(-c2ccncc2)[nH]c1-c1cccc(F)c1 [Compound A3, 2-(3-Fluoro-phenyl)-5-pyridin-4-yl-1H-pyrrole-3-carboxylic acid amide] | 1 to 100
NC(=O)c1cc(-c2ccncc2)[nH]c1-c1ccc(F)cc1 [Compound A4, 2-(4-Fluoro-phenyl-5-pyridin-4-yl-1H-pyrrole-3-carboxylic acid amide hydrochloride] | 1 to 100
NC(=O)c1cc(-c2ccncc2)[nH]c1-c1cccc(Br)c1 [Compound A5, 2-(3-Bromo-phenyl-5-pyridin-4-yl-1H-pyrrole-3-carboxylic acid amide hydrochloride] | 1 to 100
NC(=O)c1cc(-c2ccncc2)[nH]c1-c1ccc(Br)cc1 [Compound A6, 2-(4-Bromo-phenyl)-5-pyridin-4-yl-1H-pyrrole-3-carboxylic acid amide hydrochloride] | 1 to 100
Cc1cccc(-c2[nH]c(-c3ccncc3)cc2C(N)=O)c1 [Compound A8, 5-Pyridin-4-yl-2-m-tolyl-1H-pyrrole-3-carboxylic acid amide] | 1 to 100
Cc1ccc(-c2[nH]c(-c3ccncc3)cc2C(N)=O)cc1 [Compound A9, 5-pyridin-4-yl-2-p-tolyl-1H-pyrrole-3-carboxylic acid amide] | 1 to 100
COc1ccccc1-c1[nH]c(-c2ccncc2)cc1C(N)=O [Compound A10, 2-(2-Methoxy-phenyl)-5-pyridin-4-yl-1H-pyrrole-3-carboxylic acid amide hydrochloride] | 1 to 100
COc1cccc(-c2[nH]c(-c3ccncc3)cc2C(N)=O)c1 [Compound A11, 2-(3-Methoxy-phenyl)-5-pyridin-4-yl-1H-pyrrole-3-carboxylic acid amide] | 1 to 100
COc1ccc(-c2[nH]c(-c3ccncc3)cc2C(N)=O)cc1 [Compound A12, 2-(4-Methoxy-phenyl)-5-pyridin-4-yl-1H-pyrrole-3-carboxylic acid amide hydrochloride] | 1 to 100
NC(=O)c1cc(-c2ccncc2F)[nH]c1-c1ccccc1 [Compound E1, 5-(3-Fluoro-pyridin-4-yl)-2-phenyl-1H-pyrrole-3-carboxylic acid amide] | 1 to 100
NC(=O)c1cc(-c2ccnc(N)n2)[nH]c1-c1ccccc1 [Compound F1, 5-(2-Amino-pyrimidin-4-yl)-2-phenyl-1H-pyrrole-3-carboxylic acid amide] | 1 to 100
NC(=O)c1cc(-c2ccnc(N)n2)[nH]c1-c1ccsc1 [Compound G1, 5-(2-amino-pyrimidin-4-yl)-2-thiophen-3-yl-1H-pyrrole-3-carboxylic acid amide] | 1 to 100
NC(=O)c1cc(-c2ccnc(Nc3ccccc3)n2)[nH]c1-c1ccccc1 [Compound H1, 2-Phenyl-5-(2-phenylamino-pyrimidin-4-yl)-1H-pyrrole-3-carboxylic acid amide] | 1 to 100
CCn1c(-c2ccnc(N)n2)cc(C(N)=O)c1-c1ccccc1 [Compound L1, 5-(2-Amino-pyrimidin-4-yl)-1-ethyl-2-phenyl-1H-pyrrole-3-carboxylic acid amide] | 1 to 100
CC(C)NC(=O)c1cc(-c2ccnc(N)n2)[nH]c1-c1ccccc1 [Compound M2, 5-(2-Amino-pyrimidin-4-yl)-2-phenyl-1H-pyrrole-3-carboxylic acid isopropylamide] | 1 to 100
Nc1nccc(-c2cc(C(=O)NCc3ccccc3)c(-c3ccccc3)[nH]2)n1 [Compound M3, 5-(2-Amino-pyrimidin-4-yl)-2-phenyl-1H-pyrrole-3-carboxylic acid benzylamide] | 1 to 100

same assay, conditions: MCM2 substrate 6 μM, ATP 2 μM, enzyme 2 nM, 60 minutes at room temperature; read-out: IC50 values on Cdc7/Dbf4

Structure (SMILES) | IC50 [nM]
Cc1ccccc1-c1[nH]c(-c2ccncc2)cc1C(N)=O [Compound A7, 5-Pyridin-4-yl-2-o-tolyl-1H-pyrrole-3-carboxylic acid amide] | 1 to 100
Cc1cccc(-c2[nH]c(-c3ccncc3)cc2C(N)=O)c1C [Compound A20, 2-(2,3-Dimethyl-phenyl)-5-pyridin-4-yl-1H-pyrrole-3-carboxylic acid amide] | 1 to 100
NC(=O)c1cc(-c2ccncc2)[nH]c1-c1ccsc1 [Compound C1, 5-Pyridin-4-yl-2-thiophen-3-yl-1H-pyrrole-3-carboxylic acid amide] | 1 to 100
NC(=O)c1cc(-c2ccncc2)[nH]c1-c1ccoc1 [Compound C2, 2-Furan-3-yl-5-pyridin-4-yl-1H-pyrrole-3-carboxylic acid amide] | 1 to 100
Nc1nccc(-c2cc(C(=O)NCC3CCCCC3)c(-c3ccccc3)[nH]2)n1 [Compound M4, 5-(2-Amino-pyrimidin-4-yl)-2-phenyl-1H-pyrrole-3-carboxylic acid cyclohexylmethyl-amide] | 1 to 100
